From the supplement of paper PMC10307832

Key:
Assay in all cases: relative viability (nuclei count vs DMSO), 5 days (fraction); higher = more cells survive
QS11 + Navitoclax = compound: C1CC2=C(C1)C=C(C=C2)OC3=NC(=C4C(=N3)N(C=N4)CC5=CC=C(C=C5)C6=CC=CC=C6)N[C@@H](CC7=CC=CC=C7)CO [QS11] + CC1(C)CCC(c2ccc(Cl)cc2)=C(CN2CCN(c3ccc(C(=O)NS(=O)(=O)c4ccc(N[C@H](CCN5CCOCC5)CSc5ccccc5)c(S(=O)(=O)C(F)(F)F)c4)cc3)CC2)C1 [Navitoclax] (partner 0.5 µM)
Method in brief: (§1)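 Values are medians from duplicate plates. Each reflects relative viability, defined as the nuclei count of treated wells over that of vehicle wells. Lung cancer cell lines in 1536-well plates were pin-tool dosed one day after seeding with one drug alone or with a fixed anchor-drug dose plus five library-drug doses (not always all listed) in √10 steps, then fixed, stained and imaged at 4× after 5 days.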

QS11 + Alpelisib = compound: C1CC2=C(C1)C=C(C=C2)OC3=NC(=C4C(=N3)N(C=N4)CC5=CC=C(C=C5)C6=CC=CC=C6)N[C@@H](CC7=CC=CC=C7)CO [QS11] + Cc1nc(NC(=O)N2CCC[C@H]2C(N)=O)sc1-c1ccnc(C(C)(C)C(F)(F)F)c1 [Alpelisib] (partner 2 µM)
Method in brief: as §1

AZ628 + Trametinib = compound: CC1=C(C=C(C=C1)NC(=O)C2=CC(=CC=C2)C(C)(C)C#N)NC3=CC4=C(C=C3)N=CN(C4=O)C [AZ628] + CC(=O)Nc1cccc(-n2c(=O)n(C3CC3)c(=O)c3c(Nc4ccc(I)cc4F)n(C)c(=O)c(C)c32)c1 [Trametinib] (partner 0.02 µM)
Method in brief: as §1

AZ628 + Olaparib = compound: CC1=C(C=C(C=C1)NC(=O)C2=CC(=CC=C2)C(C)(C)C#N)NC3=CC4=C(C=C3)N=CN(C4=O)C [AZ628] + O=C(c1cc(Cc2n[nH]c(=O)c3ccccc23)ccc1F)N1CCN(C(=O)C2CC2)CC1 [Olaparib] (partner 8 µM)
Method in brief: as §1

Cell Line | relative viability (QS11 + Navitoclax; first compound 0.08 µM) | relative viability (QS11 + Navitoclax; first compound 0.253 µM) | relative viability (QS11 + Navitoclax; first compound 0.8 µM) | relative viability (QS11 + Navitoclax; first compound 2.53 µM) | relative viability (QS11 + Navitoclax; first compound 8 µM) | relative viability (QS11 + Alpelisib; first compound 0.08 µM) | relative viability (QS11 + Alpelisib; first compound 0.253 µM) | relative viability (QS11 + Alpelisib; first compound 0.8 µM) | relative viability (QS11 + Alpelisib; first compound 2.53 µM) | relative viability (QS11 + Alpelisib; first compound 8 µM) | relative viability (AZ628 + Trametinib; first compound 0.08 µM) | relative viability (AZ628 + Trametinib; first compound 0.253 µM) | relative viability (AZ628 + Trametinib; first compound 0.8 µM) | relative viability (AZ628 + Trametinib; first compound 2.53 µM) | relative viability (AZ628 + Trametinib; first compound 8 µM) | relative viability (AZ628 + Olaparib; first compound 0.08 µM) | relative viability (AZ628 + Olaparib; first compound 0.253 µM) | relative viability (AZ628 + Olaparib; first compound 0.8 µM) | relative viability (AZ628 + Olaparib; first compound 2.53 µM) | relative viability (AZ628 + Olaparib; first compound 8 µM)
EPLC-272H | 1.13 | 1.17 | 1.15 | 1.08 | 1.36 | 0.931 | 0.934 | 1.04 | 1.04 | 1.1 | 0.26 | 0.207 | 0.222 | 0.189 | 0.17 | 0.492 | 0.663 | 0.603 | 0.568 | 0.452
SW 900 |  |  |  |  |  |  |  |  |  |  | 0.506 | 0.663 | 0.568 | 0.555 | 0.309 | 1.04 | 0.878 | 1.02 | 0.951 | 0.683
EBC-1 | 0.387 | 0.352 | 0.374 | 0.363 | 0.393 | 0.932 | 0.77 | 0.76 | 0.816 | 0.667 |  |  |  |  |  | 0.609 | 0.615 | 0.737 | 0.684 | 0.314
HCC-44 | 0.943 | 0.93 | 0.666 | 0.792 | 0.718 | 0.837 | 0.755 | 0.659 | 0.728 | 0.476 | 0.909 | 0.837 | 0.566 | 0.804 | 0.519 | 1.01 | 0.999 | 0.977 | 0.972 | 0.974
NCI-H441 | 0.452 | 1.04 | 0.673 | 0.723 | 0.529 | 0.785 | 0.843 | 0.784 | 0.794 | 0.706 | 0.405 | 0.306 | 0.386 | 0.283 | 0.437 | 0.547 | 0.532 | 0.738 | 0.699 | 0.542
LU99A | 0.867 | 0.841 | 0.937 | 0.847 | 0.592 | 0.486 | 0.528 | 0.596 | 0.367 | 0.405 | 0.296 | 0.277 | 0.245 | 0.244 | 0.288 | 0.269 | 0.255 | 0.272 | 0.296 | 0.214
NCI-H661 |  |  |  |  |  | 0.657 | 0.599 | 0.658 | 0.637 | 0.646 | 0.509 | 0.426 | 0.413 | 0.377 | 0.535 | 0.748 | 0.702 | 0.699 | 0.727 | 0.644
PC-14 | 1.1 | 1.02 | 0.95 | 1.03 | 0.921 | 1.08 | 0.982 | 0.911 | 1.01 | 1.02 | 0.441 | 0.301 | 0.205 | 0.178 | 0.195 | 0.376 | 0.258 | 0.243 | 0.259 | 0.16
NCI-H1299 | 1.04 | 1.07 | 1.03 | 0.923 | 0.839 | 1.09 | 1.1 | 1.02 | 0.962 | 1.05 |  |  |  |  |  | 1.12 | 1.18 | 1.12 | 1.27 | 0.628
A549 | 1.2 | 1.37 | 1.21 | 1.06 | 0.808 | 0.912 | 0.757 | 0.691 | 0.451 | 0.215 |  |  |  |  |  | 0.299 | 0.28 | 0.495 | 0.348 | 0.199
IA-LM | 0.762 | 0.828 | 0.69 | 0.5 | 0.614 | 0.665 | 0.747 | 0.378 | 0.826 | 0.473 |  |  |  |  |  | 1.03 | 0.815 | 0.846 | 0.875 | 0.363
Calu-6 | 1.08 | 0.844 | 0.872 | 1.01 | 0.901 | 0.98 | 0.974 | 0.856 | 0.99 | 0.884 |  |  |  |  |  | 0.595 | 0.491 | 0.496 | 0.41 | 0.16
NCI-H1648 |  |  |  |  |  |  |  |  |  |  | 0.404 | 0.333 | 0.288 | 0.337 | 0.284 | 1.09 | 0.62 | 1.01 | 0.767 | 0.556
NCI-H1650 | 1.18 | 1.12 | 1.07 | 1.1 | 1.2 |  |  |  |  |  | 0.502 | 0.541 | 0.329 | 0.327 | 0.497 | 0.839 | 0.866 | 0.847 | 0.766 | 0.909
NCI-H1703 | 1.41 | 1.11 | 1.18 | 1.3 | 1.35 | 0.322 | 0.409 | 0.32 | 0.331 | 0.446 |  |  |  |  |  | 0.239 | 0.216 | 0.216 | 0.178 | 0.177
ChaGo-K-1 |  | 1.01 | 1.42 | 1.66 | 1.21 |  |  |  |  |  | 0.911 | 0.879 | 0.881 | 0.873 | 0.839 | 0.456 | 0.389 | 0.422 | 0.452 | 0.453
LCLC-103H |  |  |  |  |  | 1.07 | 0.979 | 0.797 | 0.938 | 0.974 | 0.58 | 0.586 | 0.657 | 0.565 | 0.584 | 0.797 | 0.77 | 0.761 | 0.779 | 0.769
ABC-1 |  |  |  |  |  | 0.89 | 1.02 | 0.932 | 0.945 | 1.21 |  |  |  |  |  | 0.987 | 0.712 | 0.868 | 0.508 | 0.732
NCI-H1563 |  |  |  |  |  | 0.902 | 0.931 | 1.02 | 0.831 | 0.749 |  |  |  |  |  |  |  |  |  | 
NCI-H358 |  |  |  |  |  | 0.914 | 0.857 | 1.02 | 1.5 | 1.35 | 0.113 | 0.112 | 0.104 | 0.102 | 0.134 | 0.567 | 0.457 | 0.361 | 0.417 | 0.295
